Assay results reported in ChEMBL document CHEMBL1201862, “PubChem BioAssay data set” (2004).
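Growth conditions: 96-well plates. Treatment: test compound, 48 hours, 5 concentrations. Analysis: linear interpolation between bracketing concentrations; unreached endpoints set to highest concentration. The concentration for 50% growth inhibition is given as GI50.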 Calls of active or inactive are those of the source. Rule as the data show it: active = GI50 up to about 1.1 µM and inactive = higher.

Key:
Experiment in all cases: NCI-60 cell line screen, 48 h
A549 = system: A549
ACHN = system: ACHN
BT-549 = system: BT-549
CAKI-1 = system: CAKI-1
CCRF-CEM = system: CCRF-CEM
COLO 205 = system: COLO 205
DU-145 = system: DU-145
EKVX = system: EKVX
HCT-116 = system: HCT-116
HCT-15 = system: HCT-15
HL-60 = system: HL-60
HOP-62 = system: HOP-62
HT-29 = system: HT-29
Hs-578T = system: Hs-578T
IGROV-1 = system: IGROV-1
K562 = system: K562
KM12 = system: KM12
LOX IMVI = system: LOX IMVI
M14 = system: M14
MCF7 = system: MCF7
MDA-MB-231 = system: MDA-MB-231
MDA-MB-435 = system: MDA-MB-435
MDA-N = system: MDA-N
MOLT-4 = system: MOLT-4
Malme-3M = system: Malme-3M
NCI-H23 = system: NCI-H23
NCI-H460 = system: NCI-H460
NCI/ADR-RES = system: NCI/ADR-RES
OVCAR-3 = system: OVCAR-3
OVCAR-4 = system: OVCAR-4
OVCAR-5 = system: OVCAR-5
OVCAR-8 = system: OVCAR-8
PC-3 = system: PC-3
RPMI-8226 = system: RPMI-8226
RXF 393 = system: RXF 393
SF-268 = system: SF-268
SF-295 = system: SF-295
SF-539 = system: SF-539
SK-MEL-28 = system: SK-MEL-28
SK-MEL-5 = system: SK-MEL-5
SK-OV-3 = system: SK-OV-3
SN12C = system: SN12C
SNB-19 = system: SNB-19
SNB-75 = system: SNB-75
SR = system: SR
SW-620 = system: SW-620
T47D = system: T47D
TK-10 = system: TK-10
U-251 = system: U-251
UACC-257 = system: UACC-257
UACC-62 = system: UACC-62
UO-31 = system: UO-31
786-0 = system: 786-0
A498 = system: A498
HCC 2998 = system: HCC 2998
HOP-92 = system: HOP-92
NCI-H226 = system: NCI-H226
NCI-H522 = system: NCI-H522
SK-MEL-2 = system: SK-MEL-2

Cc1ccc(Nc2n[nH]c(NS(=O)(=O)c3cc(C(=O)Nc4ccc(Cl)cc4)c(Cl)cc3S)n2)cc1
GI50 (A549): 99.8 µM (inactive)
GI50 (ACHN): > 100 µM (inactive)
GI50 (BT-549): > 100 µM (inactive)
GI50 (CAKI-1): > 100 µM (inactive)
GI50 (CCRF-CEM): > 100 µM (inactive)
GI50 (COLO 205): > 100 µM (inactive)
GI50 (DU-145): > 100 µM (inactive)
GI50 (EKVX): 35 µM (inactive)
GI50 (HCT-116): > 100 µM (inactive)
GI50 (HCT-15): > 100 µM
GI50 (HL-60): 33.7 µM (inactive)
GI50 (HOP-62): > 100 µM (inactive)
GI50 (HT-29): 89.9 µM (inactive)
GI50 (Hs-578T): 84.9 µM (inactive)
GI50 (IGROV-1): > 100 µM (inactive)
GI50 (K562): > 100 µM (inactive)
GI50 (KM12): > 100 µM (inactive)
GI50 (LOX IMVI): 48.4 µM (inactive)
GI50 (M14): > 100 µM (inactive)
GI50 (MCF7): > 100 µM (inactive)
GI50 (MDA-MB-231): > 100 µM (inactive)
GI50 (MDA-MB-435): > 100 µM (inactive)
GI50 (MDA-N): > 100 µM (inactive)
GI50 (MOLT-4): > 100 µM (inactive)
GI50 (Malme-3M): 50.5 µM (inactive)
GI50 (NCI-H23): > 100 µM (inactive)
GI50 (NCI-H460): 36 µM (inactive)
GI50 (NCI/ADR-RES): > 100 µM (inactive)
GI50 (OVCAR-3): > 100 µM (inactive)
GI50 (OVCAR-4): > 100 µM (inactive)
GI50 (OVCAR-5): > 100 µM (inactive)
GI50 (OVCAR-8): > 100 µM (inactive)
GI50 (PC-3): > 100 µM (inactive)
GI50 (RPMI-8226): > 100 µM (inactive)
GI50 (RXF 393): 62.2 µM (inactive)
GI50 (SF-268): > 100 µM (inactive)
GI50 (SF-295): > 100 µM (inactive)
GI50 (SF-539): > 100 µM (inactive)
GI50 (SK-MEL-28): > 100 µM (inactive)
GI50 (SK-MEL-5): > 100 µM (inactive)
GI50 (SK-OV-3): > 100 µM (inactive)
GI50 (SN12C): > 100 µM (inactive)
GI50 (SNB-19): > 100 µM (inactive)
GI50 (SNB-75): > 100 µM (inactive)
GI50 (SR): > 100 µM (inactive)
GI50 (SW-620): > 100 µM (inactive)
GI50 (T47D): 63.2 µM (inactive)
GI50 (TK-10): > 100 µM (inactive)
GI50 (U-251): 54.8 µM (inactive)
GI50 (UACC-257): > 100 µM (inactive)
GI50 (UACC-62): > 100 µM (inactive)
GI50 (UO-31): > 100 µM (inactive)

C[C@]12CC[C@@H]3c4ccc(O)cc4CC[C@H]3[C@@H]1CC[C@@H]2OP(=O)(O)O
GI50 (786-0): > 100 µM (inactive)
GI50 (A498): > 100 µM (inactive)
GI50 (A549): > 100 µM (inactive)
GI50 (ACHN): > 100 µM (inactive)
GI50 (BT-549): > 100 µM (inactive)
GI50 (CAKI-1): > 100 µM (inactive)
GI50 (CCRF-CEM): > 100 µM (inactive)
GI50 (COLO 205): > 100 µM (inactive)
GI50 (DU-145): > 100 µM (inactive)
GI50 (EKVX): > 100 µM (inactive)
GI50 (HCC 2998): > 100 µM (inactive)
GI50 (HCT-116): > 100 µM (inactive)
GI50 (HCT-15): > 100 µM
GI50 (HL-60): > 100 µM (inactive)
GI50 (HOP-62): > 100 µM (inactive)
GI50 (HOP-92): > 100 µM (inactive)
GI50 (HT-29): > 100 µM (inactive)
GI50 (Hs-578T): > 100 µM (inactive)
GI50 (IGROV-1): > 100 µM (inactive)
GI50 (K562): > 100 µM (inactive)
GI50 (KM12): > 100 µM (inactive)
GI50 (LOX IMVI): > 100 µM (inactive)
GI50 (M14): > 100 µM (inactive)
GI50 (MCF7): > 100 µM (inactive)
GI50 (MDA-MB-231): > 100 µM (inactive)
GI50 (MDA-MB-435): > 100 µM (inactive)
GI50 (MDA-N): > 100 µM (inactive)
GI50 (MOLT-4): > 100 µM (inactive)
GI50 (Malme-3M): > 100 µM (inactive)
GI50 (NCI-H226): > 100 µM (inactive)
GI50 (NCI-H23): > 100 µM (inactive)
GI50 (NCI-H460): > 100 µM (inactive)
GI50 (NCI-H522): > 100 µM (inactive)
GI50 (NCI/ADR-RES): > 100 µM (inactive)
GI50 (OVCAR-3): > 100 µM (inactive)
GI50 (OVCAR-4): > 100 µM (inactive)
GI50 (OVCAR-5): > 100 µM (inactive)
GI50 (OVCAR-8): > 100 µM (inactive)
GI50 (PC-3): > 100 µM (inactive)
GI50 (RPMI-8226): > 100 µM (inactive)
GI50 (RXF 393): > 100 µM (inactive)
GI50 (SF-268): > 100 µM (inactive)
GI50 (SF-295): > 100 µM (inactive)
GI50 (SF-539): > 100 µM (inactive)
GI50 (SK-MEL-28): > 100 µM (inactive)
GI50 (SK-MEL-2): > 100 µM (inactive)
GI50 (SK-MEL-5): > 100 µM (inactive)
GI50 (SK-OV-3): > 100 µM (inactive)
GI50 (SN12C): > 100 µM (inactive)
GI50 (SNB-19): > 100 µM (inactive)
GI50 (SNB-75): > 100 µM (inactive)
GI50 (SW-620): > 100 µM (inactive)
GI50 (T47D): > 100 µM (inactive)
GI50 (TK-10): > 100 µM (inactive)
GI50 (U-251): > 100 µM (inactive)
GI50 (UACC-257): > 100 µM (inactive)
GI50 (UACC-62): > 100 µM (inactive)
GI50 (UO-31): > 100 µM (inactive)
